This is an account of results in article PMC5955586, “Transport of enniatin B and enniatin B1 across the blood-brain barrier and hints for neurotoxic effects in cerebral cells” (PLoS ONE, 2018).

One data set concerns PBCEC monolayer. In words: Transfer across PBCEC monolayer on Transwell filters (BBB model). The format is in vitro ADME, porcine. The following applies: for active transport: 200 nM equimolar on both sides; for amount of apically applied compound found in basolateral compartment: after 6.5 h; for amount in filter membrane with attached PBCEC relative to applied amount: extraction after 48 h. The method, then: (§1) In accordance with the thawing and seeding procedure for PBCEC, described for the viability test, 500 μL PBCEC suspension (2.5 × 10^5 cells/well) in culture medium were seeded on rat tail collagen coated 12-well Transwell® microporous polycarbonate filter inserts (Corning, Wiesbaden, Germany; growth area 1.12 cm^2, pore size 0.4 μm) in the upper (apical) compartment of the filter system. The lower (basolateral) compartment was filled with 1500 μL complete medium. This two-compartment system was used as model system for the BBB with the apical compartment reflecting the “blood”-side and the basolateral compartment serving as the “brain”-side. After 48 h, the complete medium was replaced by serum free medium. Additionally, 550 nM hydrocortisone (Sigma-Aldrich, Steinheim, Germany) was supplemented to urge differentiation of cells. After another 48 h, experiments studying barrier integrity and permeability were performed.
(§2) Before starting each experiment, the TEER values and the electrical capacitance of all cell layers were measured via cellular impedance spectroscopy (cellZscope®, nanoAnalytics, Münster, Germany). […] TEER values relate to the constitution of the tight junctions limiting paracellular transfer of compounds. In addition to the TEER, electrical capacitances (CCl) were monitored for 48 h. Cellular phospholipid bilayers act like an electrical capacitor and also contribute to the cellular impedance. Changes of the CCl value give information about the integrity of the cell monolayer. In this experiment, a parallel set up was applied. For each treatment, one triplicate of filters was monitored via cellular impedance spectroscopy over the course of 48 h using a cellZscope® device–here, the basolateral compartment was prepared with 1650 μL serum free medium and the volume in the apical compartment was filled to 760 μL (ratio 1:2.17). Another triplicate for the same incubation conditions was kept in Transwell® filter cell culture multiple well plates (12 well format) over the course of 48 h. In the multiple well plates the ratio between the apical and the basolateral compartment was 1:3, therefore the starting volume in the apical compartment is 500 μL and 1500 μL in the basolateral compartment. Here, samples for quantitation of transfer of enniatins across the barrier were drawn after 1, 2.5, 6.5, 18, 24, 28, 42 and 48 hours in this given ratio i.e. 30 μL apical and 90 μL basolateral. After 48 h, the final TEER values of the filters from the multiple well plate were measured to ensure the stability of the cell layer throughout the experiment. To double check the integrity of the barrier, lucifer yellow (LY, 50 μM), as a paracellular transfer marker, was applied. The amount of LY found in the basolateral compartment after 1 h was measured at λex = 430 nm and λ em = 540 nm.
(§3) After the completion of the experiment, the polycarbonate filter membranes were extracted. The filters were cut out and extracted with ACN/H2O (8+2, v/v) via ultrasonication for 1 h. The extract was evaporated (vacuum concentrator BA-VC-200 H, Bachofer GmbH + Co KG, Reutlingen, Germany) and reconstituted in 200 μL of ACN/H2O (8+2, v/v). The obtained samples and filter extracts were analyzed and quantitated with high performance liquid chromatography-tandem mass spectrometry (HPLC-MS/MS).
(§4) The quantitation of ENN B and ENN B1 by HPLC-MS/MS was carried out using an 1100 series (Agilent Technologies, Santa Clara, USA) high performance liquid chromatography (HPLC) system and API 3200 (AB SCIEX Germany GmbH, Darmstadt, Germany) mass spectrometer. Both devices were operated with Analyst Version 1.6.2 software (AB SCIEX Germany GmbH, Darmstadt, Germany). A Synergi 4 μm Fusion-RP 80 Å 50 × 2.0 mm (Phenomenex) equipped with a Synergy 4 μm Fusion-RP 4 × 2.0 mm (Phenomenex) precolumn was used and maintained at 40°C. A binary gradient consisting of ACN (A) and water (B) (both containing 0.1% formic acid) was applied. […]

Experiment in data set [1]: as above
The following applies: pig; apical to basolateral, 1 μM apical application (passive transport); read-out: Permeability coefficient. The format is in vitro ADME, porcine. The procedure:
as §1, §2, §3, §4

A short description of data set [2]: CCK-8 viability assay in PBCEC. The note with it: pig, primary porcine brain capillary endothelial cells (PBCEC). The format is cell-based, porcine. The procedure:
(§5) Primary porcine brain capillary endothelial cells (PBCEC) were kindly provided by the group of Prof. Dr. Langer, Institute of Pharmaceutical Technology, WWU Münster. Cellular viability was tested after treatment for 48 h using the CCK-8 assay, like applied for the cell lines but with minor modifications. Based on earlier protocols for the cultivation of PBCEC, the cryopreserved PBCEC were thawed at 37°C in a water bath, gently resuspended in culture medium (Medium 199 Earle’s with 100 U/mL penicillin, 100 μg/mL streptomycin, 100 μg/mL gentamycin, 4.1 mM L-glutamine and 10% fetal calf serum) and centrifugated at 220 × g at 20°C for 10 min. After removal of the supernatant, fresh complete medium was added and the cell pellet was resuspended twice and diluted to desired cell density. The cells were seeded on rat tail collagen coated 96-well tissue culture plates with 100 μL of the cell suspension per well. PBCEC were allowed to grow for 48 h at 37°C, 5% CO2 under saturated humidified conditions. Complete medium was exchanged for serum free medium (DMEM/Ham’s F-12 1:1 with 100 U/mL penicillin, 100 μg/mL streptomycin, 100 μg/mL gentamycin, 0.7 mM L-glutamine and 550 nM hydrocortisone (Sigma-Aldrich, Steinheim, Germany)). On day 5 in culture (96 h after seeding) half of the medium (50 μL) was removed and exchanged with 50 μL double concentrated ENN solution to reach the desired final concentrations in a concentration range from 0.1 μM to 10 μM. The cells were treated with the test substances in concentrations from 0.1 to 10 μM for 48 h. Due to the sensitivity of the primary cells, after completion of 48 h, the incubation medium was not exchanged but each well was supplemented with 10 μL of the CCK-8 solution and incubated for 70 min at 37°C, 5% CO2 in a saturated humidified atmosphere. Then the absorbance of the generated formazan dye was measured at 457 nm with 650 nm as reference wavelength. After subtracting the reference absorption as well as a blank absorption without cells, the viabilities were normalized to a solvent treated negative control (1% ACN).
For orientation: Tetrazolium assays rely on reduction of a dye to a coloured formazan, in cell work by metabolically active cells.

Another data set has as its system PBCEC. The data set can be described thus: CCK-8 viability assay in PBCEC. It is filed as cell-based, porcine. The following applies: 48 h; for cytotoxic effects: 1 μM. The procedure:
as §5

A further data set has as its system MRC-5 cells. On the set-up: method as in PMID 16730043. The note with it: MRC-5, 24 h, Alamar Blue; cited from earlier work. (In general: Alamar Blue is a resazurin reagent that responds to reducing activity.)
Another data set concerns HepG2 cells. The arrangement: method as in PMID 16730043. The note with it: HepG2, 24 h, Alamar Blue; cited from earlier work.

The term viability denotes a read-out of living cells in per cent, often relative to untreated cells. Usually IC50 stands for the point on the concentration scale where inhibition reaches its midpoint. With `CC[C@H](C)[C@H]1C(=O)O[C@H](C(C)C)C(=O)N(C)[C@@H](C(C)C)C(=O)O[C@H](C(C)C)C(=O)N(C)[C@@H](C(C)C)C(=O)O[C@H](C(C)C)C(=O)N1C` [ENN B1, enniatin B1], in the data set with PBCEC monolayer, the active transport result is given as “minor enrichment in the apical compartment” and the “amount in filter membrane with attached PBCEC relative to applied amount” value is 2.7%. Also, in the data set on PBCEC monolayer (1 μM (0.5 nmol) apical, 6.5 h to 48 h), the “amount transferred to basolateral compartment” value is given as “up to 55%”. Also, the “amount of apically applied compound found in basolateral compartment” value with PBCEC monolayer (1 μM (0.5 nmol) apical) is on record as 44%. Further, in data set [1], the Papp A→B at 1 μM was 14.6 ×10⁻⁶ cm/s. For the same compound, the viability at 48 h, 10 µM in data set [2] (10 μM, read-out: relative viability) is 64%. For the same compound, in the data set on PBCEC, the cytotoxic effects result is “did not show any cytotoxic effects” and the “concentration with highly significant cytotoxicity” value was at least 2500 nM. Moreover, the IC50 in the data set with MRC-5 cells is 4.7 µM. For the same compound, the half-inhibitory concentration (IC50) in the data set on HepG2 cells is 36 µM.
On to `CC(C)[C@H]1C(=O)O[C@H](C(C)C)C(=O)N(C)[C@@H](C(C)C)C(=O)O[C@H](C(C)C)C(=O)N(C)[C@@H](C(C)C)C(=O)O[C@H](C(C)C)C(=O)N1C` [ENN B, enniatin B], for which, in the data set on PBCEC monolayer, the active transport result is “minor enrichment in the apical compartment” and the “amount in filter membrane with attached PBCEC relative to applied amount” value is given as “below 1%”. For the same compound, in the data set with PBCEC monolayer (1 μM (0.5 nmol) apical), the “plateau of amount in basolateral compartment” value worked out at 70 ± 4% and the “amount of apically applied compound found in basolateral compartment” value is 53%. Moreover, in data set [1], the Papp A→B at 1 μM was 14.9 ×10⁻⁶ cm/s. For the same compound, the viability at 48 h in data set [2] (concentrations above 5 μM, read-out: cellular viability, minimum) is 70%. In the data set with PBCEC, the cytotoxic effects entry is recorded as “did not show any cytotoxic effects” and the “concentration with highly significant cytotoxicity” value was “above 5 μM”. Also, in the data set on MRC-5 cells, the half-inhibitory concentration (IC50) is 9.8 µM. The 50% inhibitory concentration (IC50) in the data set with HepG2 cells was 436 µM.
